A word on the LD50: it is the dose expected to kill half of the subjects tested. Read a low LD50 as greater toxicity. What is called inhibition is the percentage by which the read-out fell short of the control. As usually defined, the IC50 is the concentration at which inhibition is half-maximal.

The record followed here is US4497818A, “2-(1,4-Benzodioxan-2-ylalkyl)imidazoles useful as antihypertensives and platelet aggregation inhibitors” (Syntex (U.S.A.) Inc., priority 1981, dated 1985).

In series [1] the target is T1, post-synaptic α-adrenoceptor (α1) (Rattus norvegicus, UniProt P43140).
T1 construct: from tissue; host or cells: rat isolated vas deferens, epididymal portion
T1 sequence (P43140 1-466): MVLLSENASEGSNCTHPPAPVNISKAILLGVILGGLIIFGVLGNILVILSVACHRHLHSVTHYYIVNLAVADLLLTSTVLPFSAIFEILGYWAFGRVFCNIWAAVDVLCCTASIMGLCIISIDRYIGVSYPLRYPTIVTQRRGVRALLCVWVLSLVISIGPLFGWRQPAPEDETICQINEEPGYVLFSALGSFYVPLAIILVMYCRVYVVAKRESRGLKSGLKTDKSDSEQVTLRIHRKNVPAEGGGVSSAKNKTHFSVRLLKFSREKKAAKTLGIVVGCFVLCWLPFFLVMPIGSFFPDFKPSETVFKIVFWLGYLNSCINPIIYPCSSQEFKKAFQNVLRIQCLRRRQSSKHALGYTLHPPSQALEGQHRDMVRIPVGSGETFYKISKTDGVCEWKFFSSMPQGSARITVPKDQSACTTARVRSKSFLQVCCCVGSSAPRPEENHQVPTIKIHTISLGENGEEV
Put plainly: Post-synaptic α-adrenoceptor blockade (epididymal portion of rat vas deferens, contractile effects of phenylephrine). Type of series: cell-based. Particulars: phenylephrine agonist, number of determinations in parentheses; for Kb: for 1-ethyl b174 = lot No. 1, b175 = lot No. 2, read-out: pA2 (α1) (converted). From the text:
The contralateral portions served as control tissues.
J. Pharmacol.; 14: 48-58 (1959).

Series [2] is described as follows: LD50, intraperitoneal injection in mice. As to conditions: mouse, in vivo, ip, per body weight.
The test system of series [3] is blood platelets. In words: Platelet aggregation inhibition. Type of series: cell-based. As to conditions: hydrochloride salt; for inhibition at 500 µM: at 5 × 10^-4 M, read-out: inhibition From Maximum Height (ΔT). Here is the method:
Blood platelets are collected in the standard manner, and incubated in an Aggregation Module Incubator-Cuvette in the presence of either the inhibitor to be tested, or without said inhibitor as a control. The aggregation of the platelets is observed after the addition of an inducer, and the samples are evaluated for the presence of a lag period and the slope of the aggregation curve, as well as the maximum height of the aggregation curve in comparison to the control.

Series [4] has as its system spontaneously hypertensive rats. Put plainly: Antihypertensive activity in spontaneously hypertensive rats. Type of series: in vivo, rat. Particulars: 50 mg per kg orally on two consecutive mornings; hydrochloride salt; measured during four hours after second dose. Here is the method: Spontaneously hypertensive rats were divided into groups of four animals each with approximately equal mean systolic blood pressures. One such group serves as a control against another group which is given the compound to be tested. On two consecutive mornings, the test group was dosed orally with 50 mg per kg of 1-ethyl-2-(1,4-benzodioxane-2-ylmethyl)imidazole as a hydrochloride salt which was suspended in a vehicle of water and tween. The control group received vehicle only. Immediately after dosing on the second day, the rats were put in restrainers and placed in a heated chamber at 30° C. for four hours.
During this time, systolic blood pressures were determined at four consecutive 20 second intervals using photoelectric transducers. The mean systolic blood pressure of each rat (as an average of these four measurements) was recorded. The results are given as percentage lowering of the mean systolic blood pressure in the experimental as compared with the control group.

Like-named read-outs stand apart in the source and are kept apart here.

Turning to `CCn1ccnc1CC1COc2ccccc2O1` (stereo not drawn) [1-ethyl-2-(1,4-benzodioxan-2-ylmethyl)imidazole], the “pA2 (α1)” value in series [1] (for 1-ethyl b174 = lot No. 1, b175 = lot No. 2) amounted to 4.00. Further, in series [1], the Kb is 100 µM. Further, in series [2], the median lethal dose (LD50) amounted to 200 mg/kg.

As for `CCn1ccnc1CC1COc2ccccc2O1` (stereo not drawn) [1-ethyl-2-(1,4-benzodioxane-2-ylmethyl)imidazole], the inhibition at 1000 µM in series [3] (inducer ADP (5 × 10^-6 M), at 10^-3 M, read-out: inhibition From Slope (Rate)) came to 20%. Also, the IC50 was found to be 1000 µM in series [3] (inducer ADP (5 × 10^-6 M), read-out: IC50 From Maximum Height (ΔT)); 190 µM in series [3] (inducer arachidonic acid (2.5 × 10^-4 M), read-out: IC50 From Maximum Height (ΔT)); 310 µM in series [3] (inducer arachidonic acid (2.5 × 10^-4 M), read-out: IC50 From Slope (Rate)); 450 µM in series [3] (inducer collagen (30&), read-out: IC50 From Slope (Rate)). For the same compound, the inhibition at 500 µM in series [3] (inducer collagen (30&)) stood at 27%; in series [3] (inducer epinephrine (5 × 10^-6 M)) it was 5%. In series [3] (inducer epinephrine (5 × 10^-6 M), 5 × 10^-5 M, read-out: inhibition From Slope (Rate)), the inhibition at 50 µM came to 99%. Besides, in series [4], the “lowering of the mean systolic blood pressure compared with control group” value is listed as 29%.

Turning to `Cn1ccnc1CC1COc2ccccc2O1` (stereo not drawn) [1-methyl-2-(1,4-benzodioxan-2-ylmethyl)imidazole], the Kb in series [1] was 50.1 µM.

In the case of `CCCn1ccnc1CC1COc2ccccc2O1` (stereo not drawn) [1-propyl-2-(1,4-benzodioxan-2-ylmethyl)imidazole], the Kb in series [1] is 63.1 µM. In series [2], this compound had an LD50 of 200 mg/kg.

As to `c1ccc2c(c1)OCC(Cc1ncc[nH]1)O2` (stereo not drawn) [2-(1,4-benzodioxan-2-ylmethyl)imidazole], the Kb in series [1] was 0.794 µM. In addition, the LD50 in series [2] came out at 70 mg/kg.

With `c1ccc2c(c1)OCC(CCc1ncc[nH]1)O2` (stereo not drawn) [2-(2-(1,4-benzodioxan-2-yl)ethyl)imidazole], in series [1], the Kb was 0.617 µM.
